Experiments:
Assay type in all cases: in vivo
[1] = tested on: Bemisia tabaci, GUA MIX; test: Bioassay: B. tabaci pupae protein on one tomato plant treated with cis-jasmone and PBO; conditions: for μg (Av) Total Protein (B. tabaci pupae): one tomato plant, ten adult whiteflies, ~16 days
Description: (§1) In all bioassay experiments the control plants were sprayed with deionised water. Initially seven treatments were used (Table 1) to test all chemical variables. All treatments were applied hydraulically with a spray simulator after which the plants were separated according to treatment (with cis-jasmone controls being separated) and left for 2 hours prior to insect application.
(§2) Analysis of protein in each treatment was conducted using Bradford Reagent: the data were analysed using the computer programme ‘GraFit’ (Erithacus software, Berkeley). To calculate the calibration curve a single logarithmic curve was used with regression analysis taking the values of the treatment wells (averages of the three readings taken: technical replicates).
A new method for the investigation of the development of whitefly to the pupal stage on tomatoes and cotton was used. […] These were checked for protein after ˜16 days using Bradford reagent.
Adults were added to the plant 2 h after treatment, and removed after 24 h. The eggs laid were then left for 16-18 days until they reached the pupal stage. The total pupal protein on the plant was tested using the Bradford reagent.

[2] = tested on: Myzus persicae, US1L; test: Glasshouse simulator trial: M. persicae protein on pepper plants treated with cis-jasmone and PBO; conditions: for μg (Av) Total Protein (M. persicae): simulator, 25 pepper plants per treatment, three adult apterous aphids per plant, 7 days
Description: as §1, §2
To investigate developmental/fecundity effects of cis-jasmone+/−PBO (see Table 1) on Myzus persicae when applied to sweet peppers, adults were added to the plants and then using Bradford reagent, the amount of aphid protein present on the plants 7 days after treatment was measured. Esterase levels were also tested after the same interval to check for the possible induction of metabolic enzymes when using cis-jasmone. Aphids were brushed from all plants and each leaf checked individually to ensure none remained. The aphid mass for each treatment was weighed before total protein was assessed (total from all […] plants in the treatment).
Myzus persicae were applied to sweet peppers at the rate of three adults per plant. Aphids were brushed from all plants and each leaf checked individually to ensure none remained. The aphid mass for each treatment was assessed for total protein (total from all 25 plants in the treatment) using Bradford reagent. The amount of aphid protein present on the plants 7 days after treatment was measured. Plants were put into glasshouse simulators (one/treatment) and kept at 28° C., 12 L: […] and 80% R.H.

[3] = tested on: Aphis gossypii; test: A. gossypii protein on cotton plants treated with propyl gallate and cis-jasmone; conditions: five cotton plants, 3 adult apterous aphids per plant, 7 days

Q: `CCCCOCCOCCOCc1cc2c(cc1CCC)OCO2` [PBO, 2-(2-butoxyethoxy)ethyl 6-propylpiperonyl ether] was tested. Which “effect of adding PBO to the cis-jasmone treatment (in words)” value ([1]; B. tabaci on tomato, bioassay) did it give?
A: clear and highly significant (p<0.001) synergistic effect

Q: What about the “Av. Total Insect Protein μg” value ([1]; Bioassay, Bemisia tabaci (GUA MIX), average of weeks 1 to 3) of the same molecule?
A: 0.419 µg

Q: And the “μg (Av) Total Protein (B. tabaci pupae)” value ([1]; week 1)?
A: 0.28 µg

Q: And the “μg (Av) Total Protein (B. tabaci pupae)” value ([1]; week 2)?
A: 0.28 µg

Q: What about the “μg (Av) Total Protein (B. tabaci pupae)” value ([1]; week 3) of the same molecule?
A: 0.3 µg

Q: And the “effect of addition of PBO to cis jasmone on efficacy (in words)” value ([2]; M. persicae on pepper, simulator trial)?
A: does not significantly increase efficacy

Q: What about the “Av. Total Insect Protein μg” value ([2]; Simulator, M. persicae (US1L) on Pepper (BellBoy), average of weeks 1 to 3) of the same molecule?
A: 14.406 µg

Q: What about the “μg (Av) Total Protein (M. persicae)” value ([2]; week 1) of the same molecule?
A: 14.72 µg

Q: And the “μg (Av) Total Protein (M. persicae)” value ([2]; week 2)?
A: 14.2 µg

Q: What about the “μg (Av) Total Protein (M. persicae)” value ([2]; week 3) of the same molecule?
A: 14.3 µg

Q: And the “Protein A (Av)” value ([3]; week 1)?
A: 20.05 µg

Q: What about the “Protein A (Av)” value ([3]; week 2) of the same molecule?
A: 15.1 µg

Q: And the “Protein A (Av)” value ([3]; week 3)?
A: 16.3 µg
